Legend:
NTS1 [1] = conditions: cited from earlier work
NTS1 [2] = conditions: cited from earlier work; remark: listed apart in the source
NTS1-GW5 = NTS1-GW5 (Rattus norvegicus, UniProt P20789, A86L/E166A/F358A/G215A/L310A/V360A); assay: Competition of [3H]NT binding by SR48692, NTS1-GW5
NTS1-GW5, sequence (P20789 43-396 A86L/E166A/G215A/L310A/F358A/V360A): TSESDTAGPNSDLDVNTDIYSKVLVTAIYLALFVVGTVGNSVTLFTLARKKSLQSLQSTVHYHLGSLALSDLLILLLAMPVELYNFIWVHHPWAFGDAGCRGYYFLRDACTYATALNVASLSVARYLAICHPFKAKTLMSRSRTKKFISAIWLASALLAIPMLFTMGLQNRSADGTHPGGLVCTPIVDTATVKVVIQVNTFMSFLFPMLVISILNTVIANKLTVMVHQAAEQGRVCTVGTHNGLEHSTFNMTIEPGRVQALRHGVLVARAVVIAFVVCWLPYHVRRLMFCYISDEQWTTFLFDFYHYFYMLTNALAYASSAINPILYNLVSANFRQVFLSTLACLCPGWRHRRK

In the case of Arg-Arg-Pro-Tyr-Ile-Leu [NT8-13], the “efficacy compared to full-length NT” value (NTS1 [1]) is listed as “higher potency and efficacy” and the “potency compared to full-length NT” value (NTS1 [1]) is listed as “higher potency”.

In the case of KIPYIL [neuromedin N], the “binding to NTS1” value (NTS1 [2]) is listed as “binds”.

With `COc1cccc(OC)c1-c1cc(C(=O)NC2(C(=O)O)C3CC4CC(C3)CC2C4)nn1-c1ccnc2cc(Cl)ccc12` (stereo not shown) [SR48692] the “apparent affinity for SR48692 compared to wild-type” value (NTS1-GW5) was “lower”.

Reference: article PMC3482300 (Nature, 2012)
